Holding throughout (format): cell-based
Assay [1] deals with Staphlococcus saprophyticus. Kind of assay: paper disc diffusion susceptibility (Kirby-Bauer) method. The settings on record: for zone of inhibition, Xanthohumol Avg / zone of inhibition, Xanthohumol Expt #1 / zone of inhibition, Xanthohumol Expt #2 / zone of inhibition, β-acid Avg / zone of inhibition, β-acid Exp #1: S. saprophyticus; for change of zone of inhibition when lupulone was added: Experiment 1, 0.2 μg/ml β-resin versus antibiotic alone; for zone of inhibition, Experiment 1 Control / zone of inhibition, Experiment 2 Control: antibiotic disc alone; for zone of inhibition, Experiment 1 Control / zone of inhibition, Experiment 2 Control / zone of inhibition, Experiment 1 0.2 μg/ml β-resin / zone of inhibition, Experiment 2 0.2 μg/ml β-resin: 24 hours; for zone of inhibition, Experiment 1 0.2 μg/ml β-resin / zone of inhibition, Experiment 2 0.2 μg/ml β-resin: antibiotic disc with 0.2 μg/ml β-resin in the agar. From the text:
(§1) The first test method to be applied was the paper disc diffusion susceptibility method. In this method a filter paper disc impregnated with a chemical is placed on agar, and the chemical will diffuse from the disc into the agar. If an organism is placed on the agar, it will not grow in the area around the disc if it is susceptible to the chemical. This area of no growth around the disc is known as the zone of inhibition. This disc diffusion method for antibiotic susceptibility is known as the Kirby-Bauer method. In testing the effectiveness of various antibiotics, all factors, e.g., the agar utilized, the depth of the agar, the amount of organism used, and incubation conditions, are maintained constant for the various organisms and antibiotics being tested. […] The size of the zone of inhibition of the particular antimicrobial substance may also be influenced by the diffusion capability of that substance.
(§2) In performing the disc diffusion method tests, a bacterial suspension having an inoculum density of approximately 1×10^8 CFU/ml (colony forming units) was added to 10 ml trypticase soy agar at 46° C. It was mixed thoroughly by vortexing and then poured into a plastic Petri dish. After hardening of the agar, filter paper discs (φ7 mm.) made from Whatman filter paper No. 1 that had been impregnated by the manufacturer, Becton Dickinson, Inc., with the suitable antibiotic, were placed on the agar. In this series of tests the ability of each antibiotic per se to control the growth of the bacteria was measured.
(§3) Another series of agar containing Petri dishes was then prepared using the same bacteria and density thereof as had been prepared for the prior test series. However, here hop compounds were also present in the agar. The hop extract, either lupulone, humulone or xanthohumol, was dissolved in ethanol. While certain of the hop components are only slightly soluble in water, they are very soluble in ethanol. An ethanol control was prepared in the same way.
(§4) The size of the inhibition zones was measured to the nearest mm.
(§5) The concentration of β-acid and xanthohumol is set forth in μg/ml. The zone of inhibition was measured in centimeters. […]

The next assay has as its system B. megaterium. Kind of assay: paper disc diffusion susceptibility method.
Excerpt: as §1, §2, §3, §4, §5
Background: A growth-free zone around the sample is the usual read-out of agar diffusion tests.

The next assay deals with B. subtilis. Kind of assay: paper disc diffusion susceptibility method.
Excerpt: as §1, §2, §3, §4, §5

The next assay concerns S. salivarius. Briefly: paper disc diffusion susceptibility method.
Excerpt: as §1, §2, §3, §4, §5

Setting [2] is: ciprofloxacin 5 μg on disc, xanthohumol 0 μg/ml.
[3] abbreviates: ciprofloxacin 5 μg on disc, xanthohumol 3 μg/ml.
Where [4] appears, read: ciprofloxacin 5 μg on disc, xanthohumol 10 μg/ml.
Where [5] appears, read: tobramycin 10 μg on disc, xanthohumol 0 μg/ml.
Setting [6] is: tobramycin 10 μg on disc, xanthohumol 3 μg/ml.
The mark [7] stands for this setting: tobramycin 10 μg on disc, β-acid 0 μg/ml.
Where [8] appears, read: tobramycin 10 μg on disc, β-acid 3 μg/ml.
Setting [9] is: tobramycin 10 μg on disc, xanthohumol 10 μg/ml.
The mark [10] stands for this setting: tobramycin 10 μg on disc, β-acid 30 μg/ml.

Positions of bridges follow the written chain, without caps; N, C: chain ends. Non-standard residues stand in square brackets, D forms with d. Residues, ends and D or L forms follow the SMILES beside them. *: point of attachment. Ileψ(thiazoline)Cys = CC[C@H](C)[C@H](N)C1=N[C@H](C(=O)*)CS1; dOrn = NCCC[C@@H](N)C(=O)O

As for `O=C(O)c1cn(C2CC2)c2cc(N3CCNCC3)c(F)cc2c1=O` [ciprofloxacin, 1-cyclopropyl-6-fluoro-1,4-dihyro-4-oxo-7-(1-piperaznyl)-3-quinolinecarboxylic acid], the “zone of inhibition, Xanthohumol Avg” value in assay [1] (setting [2]) is on record as 0.95 centimeters; in assay [1] (setting [3]), 1.5 centimeters; with B. megaterium (setting [2]) it was 0.75 centimeters; in the assay on B. megaterium (setting [3]), 1.75 centimeters; in the assay with B. subtilis (setting [2]), 1.0 centimeters; with B. subtilis (setting [3]), 1.85 centimeters. Also, the entries for the “zone of inhibition, Xanthohumol Avg” value with S. salivarius (setting [2]) and with S. salivarius (setting [4]) were 0.8 centimeters and 2.0 centimeters, respectively. The “zone of inhibition, Xanthohumol Expt #1” value in assay [1] (setting [2]) was determined as 0.9 centimeters; in assay [1] (setting [3]), 1.3 centimeters; with B. megaterium (setting [2]) it was 0.8 centimeters; in the assay with B. megaterium (setting [3]) it was 1.6 centimeters; in the assay with B. subtilis (setting [2]) it was 1.1 centimeters; in the assay on B. subtilis (setting [3]), 2.0 centimeters. In addition, the “zone of inhibition, Xanthohumol Expt #1” value in the assay with S. salivarius (setting [2]) worked out at 0.8 centimeters; with S. salivarius (setting [4]), 1.9 centimeters. Further, the “zone of inhibition, Xanthohumol Expt #2” value turned out to be 1.0 centimeters in assay [1] (setting [2]); 1.7 centimeters in assay [1] (setting [3]); 0.7 centimeters with B. megaterium (setting [2]); 1.9 centimeters in the assay with B. megaterium (setting [3]); 0.9 centimeters in the assay on B. subtilis (setting [2]); 1.7 centimeters in the assay on B. subtilis (setting [3]). Besides, the “zone of inhibition, Xanthohumol Expt #2” value is on record as 0.8 centimeters in the assay with S. salivarius (setting [2]) and 2.1 centimeters with S. salivarius (setting [4]).
For `CC[C@H](C)[C@H](N)C1=N[C@H](C(=O)N[C@@H](CC(C)C)C(=O)N[C@H](CCC(=O)O)C(=O)N[C@H](C(=O)N[C@H]2CCCCNC(=O)[C@H](CC(N)=O)NC(=O)[C@@H](CC(=O)O)NC(=O)[C@H](Cc3cnc[nH]3)NC(=O)[C@@H](Cc3ccccc3)NC(=O)[C@H]([C@@H](C)CC)NC(=O)[C@@H](CCCN)NC2=O)[C@@H](C)CC)CS1` [BACITRACIN, bacitracin] ({Ileψ(thiazoline)Cys}-L[dE]IK[dOrn]I[dF]H[dD]N; lactam 4-C), in assay [1], the “change of zone of inhibition when lupulone was added” value (“change of zone of inhibition” for short) is given as “remained constant”; the “zone of inhibition, Experiment 1 Control” value was found to be 0 mm; the “zone of inhibition, Experiment 2 Control” value stood at 0 mm; the “zone of inhibition, Experiment 1 0.2 μg/ml β-resin” value is given as 0 mm. In addition, in assay [1], the “zone of inhibition, Experiment 2 0.2 μg/ml β-resin” value worked out at 0 mm.
As for neomycin, in assay [1], the “zone of inhibition, Experiment 1 Control” value was 23 mm; the “zone of inhibition, Experiment 2 Control” value turned out to be 26 mm; the “zone of inhibition, Experiment 1 0.2 μg/ml β-resin” value was found to be 25 mm; the “zone of inhibition, Experiment 2 0.2 μg/ml β-resin” value is recorded as 24 mm.
In the case of `[H]/N=C(/N)N[C@H]1[C@H](O)[C@@H](O)[C@H](O[C@@H]2O[C@@H](C)[C@](O)(C=O)[C@H]2O[C@@H]2O[C@@H](CO)[C@H](O)[C@@H](O)[C@@H]2NC)[C@@H](N/C(N)=N\[H])[C@@H]1O` [STREPTOMYCIN, streptomycin], in assay [1], the “change of zone of inhibition” value is on record as “remained constant”; the “zone of inhibition, Experiment 1 Control” value amounted to 15 mm; the “zone of inhibition, Experiment 2 Control” value is reported as 15 mm; the “zone of inhibition, Experiment 1 0.2 μg/ml β-resin” value was determined as 15 mm. Further, the “zone of inhibition, Experiment 2 0.2 μg/ml β-resin” value in assay [1] was 14 mm.
For the molecule `CC[C@H]1OC(=O)[C@H](C)[C@@H](O[C@H]2C[C@@](C)(OC)[C@@H](O)[C@H](C)O2)[C@H](C)[C@@H](O[C@@H]2O[C@H](C)C[C@H](N(C)C)[C@H]2O)[C@](C)(O)C[C@@H](C)C(=O)[C@H](C)[C@@H](O)[C@]1(C)O` [ERYTHROMYCIN, erythromycin], in assay [1], the “change of zone of inhibition” value was “remained constant”; the “zone of inhibition, Experiment 1 Control” value came out at 23 mm; the “zone of inhibition, Experiment 2 Control” value worked out at 23 mm; the “zone of inhibition, Experiment 1 0.2 μg/ml β-resin” value is given as 25 mm. Also, the “zone of inhibition, Experiment 2 0.2 μg/ml β-resin” value in assay [1] was found to be 23 mm.
For `NC[C@H]1O[C@H](O[C@H]2[C@H](O)[C@@H](O[C@H]3O[C@H](CO)[C@@H](O)[C@H](N)[C@H]3O)[C@H](N)C[C@@H]2N)[C@H](N)C[C@@H]1O` [tobramycin], the “zone of inhibition, Xanthohumol Avg” value in assay [1] (setting [5]) is listed as 0.95 centimeters; in assay [1] (setting [6]), 1.5 centimeters; in the assay on B. megaterium (setting [5]), 0.7 centimeters; with B. megaterium (setting [6]) it was 1.05 centimeters; in the assay on B. subtilis (setting [5]), 1.0 centimeters; in the assay on B. subtilis (setting [6]), 1.5 centimeters. The “zone of inhibition, Xanthohumol Avg” value is given as 0.55 centimeters with S. salivarius (setting [5]) and 1.35 centimeters in the assay with S. salivarius (setting [9]). Also, the “zone of inhibition, Xanthohumol Expt #1” value in assay [1] (setting [5]) is given as 0.9 centimeters; in assay [1] (setting [6]), 1.5 centimeters; in the assay with B. megaterium (setting [5]), 0.8 centimeters; with B. megaterium (setting [6]) it was 1.1 centimeters; with B. subtilis (setting [5]), 1.1 centimeters; in the assay with B. subtilis (setting [6]), 1.6 centimeters. Besides, the “zone of inhibition, Xanthohumol Expt #1” value stood at 0.6 centimeters in the assay with S. salivarius (setting [5]) and 1.4 centimeters in the assay with S. salivarius (setting [9]). The “zone of inhibition, Xanthohumol Expt #2” value in assay [1] (setting [5]) worked out at 1.0 centimeters; in assay [1] (setting [6]) it was 1.5 centimeters; in the assay with B. megaterium (setting [5]), 0.6 centimeters; in the assay with B. megaterium (setting [6]) it was 1.0 centimeters; in the assay on B. subtilis (setting [5]), 0.9 centimeters; with B. subtilis (setting [6]) it was 1.4 centimeters. For the same molecule, the “zone of inhibition, Xanthohumol Expt #2” value is 0.5 centimeters in the assay with S. salivarius (setting [5]) and 1.3 centimeters with S. salivarius (setting [9]). Further, the “zone of inhibition, β-acid Avg” value turned out to be 0.9 centimeters in assay [1] (setting [7]); 1.6 centimeters in assay [1] (setting [8]); 0.7 centimeters in the assay on B. megaterium (setting [7]); 0.95 centimeters with B. megaterium (setting [8]); 1.0 centimeters in the assay with B. subtilis (setting [7]); 1.3 centimeters with B. subtilis (setting [8]). For the same molecule, the “zone of inhibition, β-acid Avg” value in the assay on S. salivarius (setting [7]) is on record as 0.55 centimeters; in the assay with S. salivarius (setting [10]), 0.65 centimeters. The “zone of inhibition, β-acid Exp #1” value in assay [1] (setting [7]) is given as 0.9 centimeters; in assay [1] (setting [8]) it was 1.6 centimeters; in the assay with B. megaterium (setting [7]) it was 0.8 centimeters; in the assay with B. megaterium (setting [8]) it was 1.1 centimeters; in the assay on B. subtilis (setting [7]), 1.1 centimeters; in the assay with B. subtilis (setting [8]), 1.4 centimeters. Moreover, the figures for the “zone of inhibition, β-acid Exp #1” value with S. salivarius (setting [7]) and in the assay on S. salivarius (setting [10]) were 0.6 centimeters and 0.7 centimeters, respectively. Further, the “zone of inhibition, β-acid Exp #2” value came to 0.6 centimeters with B. megaterium (setting [7]); 0.8 centimeters in the assay with B. megaterium (setting [8]); 0.9 centimeters in the assay on B. subtilis (setting [7]); 1.2 centimeters with B. subtilis (setting [8]); 0.5 centimeters in the assay with S. salivarius (setting [7]); 0.6 centimeters in the assay on S. salivarius (setting [10]).
As to penicillin, in assay [1], the “change of zone of inhibition” value is “decline”; the “zone of inhibition, Experiment 1 Control” value came out at 41 mm; the “zone of inhibition, Experiment 2 Control” value was determined as 37 mm; the “zone of inhibition, Experiment 1 0.2 μg/ml β-resin” value is reported as 39 mm. Moreover, the “zone of inhibition, Experiment 2 0.2 μg/ml β-resin” value in assay [1] came to 35 mm.
For `O=C(N[C@H](CO)[C@H](O)c1ccc([N+](=O)[O-])cc1)C(Cl)Cl` [CHLORAMPHENICOL, chloramphenicol], in that order: “decline”, 29 mm, 25 mm, 27 mm and 25 mm.

For the origin of these results see US8367086B1, “Process and product for inhibiting or preventing bacterial infections” (S.S. Steiner, Inc., priority 2004, dated 2013).
